Experiment: mn = molality of the nth substance listed, in mol/kg
Conditions: 100 kPa, Liquid; for speed of sound: Single path-length method; for mass density: Vibrating tube method

NCCCC(=O)O [4-aminobutanoic acid] + O
Conditions | mass density [kg/m3] | speed of sound [m/s]
293.15 K, m1 = 0.09972 | 1000.99 | 1491.4
293.15 K, m1 = 0.1479 | 1002.31 | 1495.4
293.15 K, m1 = 0.1942 | 1003.57 | 1499.3
293.15 K, m1 = 0.2449 | 1004.94 | 1503.5
293.15 K, m1 = 0.2937 | 1006.23 | 1507.6
293.15 K, m1 = 0.3452 | 1007.58 | 1511.8
293.15 K, m1 = 0.3928 | 1008.82 | 1515.7
298.15 K, m1 = 0.09972 | 999.771 | 1505
298.15 K, m1 = 0.1479 | 1001.05 | 1508.9
298.15 K, m1 = 0.1942 | 1002.26 | 1512.7
298.15 K, m1 = 0.2449 | 1003.56 | 1516.8
298.15 K, m1 = 0.2937 | 1004.78 | 1520.7
298.15 K, m1 = 0.3452 | 1006.04 | 1524.8
298.15 K, m1 = 0.3928 | 1007.19 | 1528.7
303.15 K, m1 = 0.09972 | 998.354 | 1517
303.15 K, m1 = 0.1479 | 999.634 | 1520.8
303.15 K, m1 = 0.1942 | 1000.85 | 1524.4
303.15 K, m1 = 0.2449 | 1002.16 | 1528.4
303.15 K, m1 = 0.2937 | 1003.41 | 1532.2
303.15 K, m1 = 0.3452 | 1004.71 | 1536.2
303.15 K, m1 = 0.3928 | 1005.89 | 1539.9
308.15 K, m1 = 0.09972 | 996.682 | 1527.4
308.15 K, m1 = 0.1479 | 997.926 | 1531.1
308.15 K, m1 = 0.1942 | 999.104 | 1534.6
308.15 K, m1 = 0.2449 | 1000.37 | 1538.5
308.15 K, m1 = 0.2937 | 1001.56 | 1542.1
308.15 K, m1 = 0.3452 | 1002.8 | 1546
308.15 K, m1 = 0.3928 | 1003.92 | 1549.6
313.15 K, m1 = 0.09972 | 994.848 | 1536.3
313.15 K, m1 = 0.1479 | 996.089 | 1539.8
313.15 K, m1 = 0.1942 | 997.262 | 1543.2
313.15 K, m1 = 0.2449 | 998.525 | 1547
313.15 K, m1 = 0.2937 | 999.722 | 1550.5
313.15 K, m1 = 0.3452 | 1000.96 | 1554.3
313.15 K, m1 = 0.3928 | 1002.08 | 1557.8
318.15 K, m1 = 0.09972 | 992.851 | 1543.7
318.15 K, m1 = 0.1479 | 994.097 | 1547.1
318.15 K, m1 = 0.1942 | 995.285 | 1550.4
318.15 K, m1 = 0.2449 | 996.567 | 1554
318.15 K, m1 = 0.2937 | 997.781 | 1557.5
318.15 K, m1 = 0.3452 | 999.045 | 1561.1
318.15 K, m1 = 0.3928 | 1000.2 | 1564.5

Source: the NIST ThermoML archive (doi:10.1021/acs.jced.9b00327)
